Experimental data published in US12527773B2, “Flavi-block: a pan-flavivirus inhibitor” (Baden-Württemberg Stiftung GmbH, priority 2020, dated 2026).
Where two headings read alike, the source gives them in different places.

Key:
DENV4 = experiment: Plaque assay of released virus, DENV4-infected Vero cells; type: cell-based; conditions: Dengue virus
Experimental: (§1) Vero cells were infected with DENV1-4 at an MOI of 1 for 2 h (post infection, p.i., (A)), after which virus was removed, and fresh maintenance medium containing 2% FCS together with the indicated concentration of C10 added. For co-treat condition (c.t., (B)), Vero cells were infected with DENV1-4 at an MOI of 1 in the presence of C10 for 2 h, followed by removal of the virus/C10 inoculums, and addition of fresh 2% fetal calf serum maintenance medium. […] Results represent the mean ±SD for duplicate wells from a single assay, representative of 2 independent experiments (cf. Tables 2A and 2B, infra, for pooled data).
(§2) Vero and BHK-21 cells were maintained in DMEM media supplemented with 10% heat-inactivated FBS at 37° C. in a humidified incubator supplemented with 5% CO2; A549 cells were maintained in F-12K medium supplemented with 10% heat-inactivated Fetal Bovine Serum (FBS), 2 mM L-glutamine, 50 U/I penicillin, 0.05 mg/l streptomycin. […] Viral titer was subsequently determined by plaque assay (see below).
(§3) Vero cells were seeded into 24-well plates at a density of 2×10^5 cells/well and grown overnight in culture medium at 37° C. with 5% CO2 prior to infection with RSV, KUNV, ZIKV as indicated. […] The stain was removed by rinsing the cells with tap water, and the viral plaques were counted visually. […]

in vitro = conditions: for % Remain. Mean: mouse plasma, 1 μM, 37° C.
Experimental: Plasma stability is defined as the percentage of parent compound remaining in plasma over the time.
Incubations were carried out in 5 aliquots of 70 μL each (one for each time point), in duplicates. Test compounds (1 μM, final DMSO concentration 1%) were incubated at 37° C. with shaking at 100 rpm. Five time points over 120 minutes have been analyzed. The reactions were stopped by adding 420 μL of acetonitrile-water mixture (90:10) with subsequent plasma proteins sedimentation by centrifuging at 5500 rpm for 5 minutes. Supernatants were analyzed by the HPLC system coupled with tandem mass spectrometer. The percentage of the test compounds remaining after incubation in plasma and their half-lives (T1/2) were calculated.

[1] = tested on: ZIKV (Asian/Cook Islands/2014); experiment: Plaque assay of released virus, ZIKV-infected Vero cells; type: cell-based; conditions: Zika virus
Experimental: as §1, with “ZIKV” for “DENV1-4”, “infection),” for “infection, p.i., (A)),”, “condition,” for “condition (c.t., (B)),”, “assay (cf. Table” for “assay, representative of”, “2” for “2 independent experiments (cf. Tables 2A and 2B, infra,”
as §2, with “streptomycin. DENV-1-4 strains, cell culture conditions and Gen-Bank accession numbers, as well as details of RSV strains and culture are known in the art.” for “streptomycin.”
as §3, with “indicated. BHK-21 cells were used for DENV1-4.” for “indicated.”

DENV capsid protein = molecular target: T1, DENV capsid protein (Dengue virus type 2, UniProt P29990); experiment: Crosslinking of recombinant DENV capsid protein (Western blot); type: biochemical
T1 construct: recombinant DENV capsid protein; made in house; host or cells: E. coli
T1 sequence (P29990 1-100): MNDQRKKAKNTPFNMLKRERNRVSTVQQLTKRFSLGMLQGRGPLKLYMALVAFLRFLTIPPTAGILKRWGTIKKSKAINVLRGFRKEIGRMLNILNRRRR
Source text: DSS was included as a positive control.

DENV2 = experiment: Plaque assay of released virus, DENV2-infected Vero cells; type: cell-based; conditions: Dengue virus
Experimental: as §1, §2, §3

[2] = Solubilization in dosing vehicle recipes; type: physicochemical
Experimental: The compound was assessed for solubilization in 5 different vehicle recipes: • 1. Physiological saline (0.9% NaCl solution in water) • 2. Kolliphor HS—physiological saline (20%:80%) • 3. DMSO-PEG400—physiological saline (20%:50%:30%) • 4. PEG400—5% dextrose in water (75%:25%) • 5. DMSO-Cremophor EL—5% Mannitol (10%:10%:80%)
To prepare the formulation using the DMSO-PEG400 —physiological saline (20%:50%:30%) recipe, the compound was first supplemented with the calculated volume of DMSO, vortexed for 1 minute and sonicated for 2 minutes at 40° C. Next, PEG400 and physiological saline were added. The final mixture was vortexed and sonicated for 2 minutes at 40° C. The working formulations batch was prepared for 1 h prior to the in vivo study.

DENV-2 = experiment: Antiviral effect on DENV (virus release and entry), Vero cells, MOI 5; type: cell-based, Dengue virus; conditions: co-treatment
Experimental: (A) Vero cells were seeded and infected with DENV-2 at a multiplicity of infection (MOI) of 5. For co-treatment cells were incubated with a premixed suspension of drug and virus, for post-treatment with virus only for 2 h. Cells were subsequently washed with PBS and cultivated for co-treatment in DMEM supplemented with 2% FCS, for post-treatment in DMEM supplemented with 2% FCS spiked with the indicated concentrations of C10. The drug containing medium for post-treated cells was removed after 2 h and replenished with fresh DMEM supplemented with 2% FCS. 24 h after infection the supernatants were used for a Plaque assay. (B) RNA extraction; n=3 with SEM. (C, D) Cells were lysed for Western blot analysis using antibodies against viral proteins NS3 and NS5 and tubulin as a loading control.
For this purpose, Vero cells were plated and infected with DENV-2 at an infection multiplicity (MOI) of 5. For co-treatment, the cells were incubated with a previously mixed suspension of active substance and virus, for post-treatment with the virus alone, each for 2 h. The cells were then washed with PBS and cultivated for co-treatment in DMEM with 2 % FCS, for post-treatment in DMEM with 2 % FCS mixed with the indicated concentrations of compound C10. For the post-treated cells, the medium containing the active substance was removed after 2 h and replaced by fresh medium with 2 % FCS. […]

CCN1/C(=C\C=C\c2sc3cc(NC(C)=O)ccc3[n+]2CC)Sc2cc(NC(C)=O)ccc21.[I-] [C10, 6-acetamido-2-((1E,3E)-3-(6-acetamido-3-ethylbenzo[d]thiazol-2(3H)-ylidene)prop-1-en-1-yl)-3-ethylbenzo[d]thiazol-3-ium iodide]
EC50 (DENV4; read-out: EC50 from plaque assays, DENV4, c.t.): 50 nM | EC50 (DENV4; read-out: EC50 from plaque assays, DENV4, p.i.): 790 nM | % Remain. Mean (in vitro; 0 min): 100% | % Remain. Mean (in vitro; 20 min): 93% | % Remain. Mean (in vitro; 40 min): 90% | % Remain. Mean (in vitro; 60 min): 82% | % Remain. Mean (in vitro; 120 min): 57% | half-life at 1 μM (in vitro; mouse, plasma): 3.68 h | stability in mouse plasma (in vitro; mouse, plasma): good stability | EC50 ([1]; read-out: EC50 from plaque assays, ZIKV, c.t.): 90 nM | EC50 ([1]; read-out: EC50 from plaque assays, ZIKV, p.i.): 210 nM | effect on oligomerization state of DENV capsid protein (DENV capsid protein): enhance the presence of dimers, tetramers and higher oligomeric states | EC50 (DENV2; read-out: EC50 from plaque assays, DENV2, c.t.): 40 nM | EC50 (DENV2; read-out: EC50 from plaque assays, DENV2, p.i.): 1300 nM | solubility ([2]; 5 vehicle recipes): very low solubility | concentration of full dissolution ([2]; only in DMSO-PEG400-physiological saline (20%:50%:30%)): 1000 µg/mL | viral proteins in cells (Western blot NS3, NS5) (DENV-2; 1 μM, compared to DMSO): viral proteins are detectable in the cells, albeit at lower amounts | productive infection (Western blot NS3, NS5) (DENV-2; 10 μM): prevents a productive infection of the cells
